Experimental data reported in BindingDB's records for doi:10.1021/jm060290f (Cardiff University, 2006).

How the values were obtained:
[1] = biological target: sterol 24-C-methyltransferase (Leishmania major); experiment: Inhibition of Leishmania major recombinant 24-SMT
[2] = biological target: sterol 24-C-methyltransferase (Trypanosoma brucei brucei); experiment: Inhibition of Trypanosoma brucei brucei recombinant 24-SMT

Structure (SMILES) | IC50 [1] [µM] | IC50 [2] [µM]
CC(=O)O[C@H]1CC[C@@]2(C)C(=CCC3[C@@H]4CC[C@H]([C@H](C)CNCC[C@H](NC(=O)OC(C)(C)C)C(=O)O)[C@@]4(C)CC[C@@H]32)C1 (stereo partly drawn) [3beta-acetoxy-23,24-bisnor-5-en-22-(4-(2-Boc-amino)butanoic acid) amine] | > 100 | 
C[C@H](C(=O)NCCCC[C@H](NC(=O)OCc1ccccc1)C(=O)O)[C@H]1CC[C@H]2C3CC=C4C[C@@H](O)CC[C@]4(C)[C@H]3CC[C@]12C (some centres not stated) [3beat-ol-23,24-bisnor-5-en-22-(6-(2-Z-amino)hexanoic acid) amide] | > 100 | 
C[C@H](C(=O)NCC(=O)O)[C@H]1CC[C@H]2C3CC=C4C[C@@H](O)CC[C@]4(C)[C@H]3CC[C@]12C (stereo partly drawn) [3beta-ol-23,24-bisnor-5-en-22-(ethanoic acid) amide] | > 100 | 
C[C@H](C(=O)NCCC[C@H](NC(=O)OCc1ccccc1)C(=O)O)[C@H]1CC[C@H]2C3CC=C4C[C@@H](O)CC[C@]4(C)[C@H]3CC[C@]12C (stereo partly drawn) [3beta-ol-23,24-bisnor-5-en-22-(5-(2-Z-amino)pentanoic acid) amide] | > 100 | 
C[C@H](CNCC(=O)O)[C@H]1CC[C@H]2C3CC=C4C[C@@H](O)CC[C@]4(C)[C@H]3CC[C@]12C (stereo partly drawn) [3beta-ol-23,24-bisnor-5-en-22-(ethanoic acid) amine] | > 100 | 
COC(=O)CCCCCCCNC[C@@H](C)[C@H]1CC[C@H]2C3CC=C4C[C@@H](OC(C)=O)CC[C@]4(C)[C@H]3CC[C@]12C (stereo partly drawn) [3beta-acetoxy-23,24-bisnor-chol-5-en-22-(methyl octanoate) amine] | > 100 | > 100
C[C@H](CNCCCCC(=O)O)[C@H]1CC[C@H]2C3CC=C4C[C@@H](O)CC[C@]4(C)[C@H]3CC[C@]12C (stereo partly drawn) [3beta-ol-23,24-bisnor-5-en-22-(pentanoic acid) amine] | 48.9 | 
C[C@H](CNCCCCCC(=O)O)[C@H]1CC[C@H]2C3CC=C4C[C@@H](O)CC[C@]4(C)[C@H]3CC[C@]12C (stereo partly drawn) [3beta-ol-23,24-bisnor-5-en-22-(hexanoic acid) amine] | > 100 | 
CC(=O)O[C@H]1CC[C@@]2(C)C(=CCC3[C@@H]4CC[C@H]([C@H](C)CNCCCCCCCC(=O)O)[C@@]4(C)CC[C@@H]32)C1 (stereo partly drawn) [3beta-acetoxy-23,24-bisnor-chol-5-en-22-(octanoic acid) amine] | > 100 | 
CC(=O)O[C@H]1CC[C@@]2(C)C(=CCC3[C@@H]4CC[C@H]([C@H](C)C(=O)NCC[C@H](NC(=O)OC(C)(C)C)C(=O)O)[C@@]4(C)CC[C@@H]32)C1 (stereo partly drawn) [3beta-acetoxy-23,24-bisnor-5-en-22-(4-(2-Boc-amino)butanoic acid) amide] | > 100 | 
CC(=O)O[C@H]1CC[C@@]2(C)C(=CCC3[C@@H]4CC[C@H]([C@H](C)C(=O)NCCC[C@H](NC(=O)OCc5ccccc5)C(=O)O)[C@@]4(C)CC[C@@H]32)C1 (stereo partly drawn) [3beta-acetoxy-23,24-bisnor-5-en-22-(5-(2-Z-amino)pentanoic acid) amide] | > 100 | 
C[C@H](C(=O)NCCCCCC(=O)O)[C@H]1CC[C@H]2C3CC=C4C[C@@H](O)CC[C@]4(C)[C@H]3CC[C@]12C (stereo partly drawn) [3beta-ol-23,24-bisnor-5-en-22-(hexanoic acid) amide] | > 100 | 
CC(=O)O[C@H]1CC[C@@]2(C)C(=CCC3[C@@H]4CC[C@H]([C@H](C)CNCCC[C@H](NC(=O)OCc5ccccc5)C(=O)O)[C@@]4(C)CC[C@@H]32)C1 (stereo partly drawn) [3beta-acetoxy-23,24-bisnor-5-en-22-(5-(2-Z-amino)pentanoic acid) amine] | > 100 | 
C[C@H](C(=O)NCCCC(=O)O)[C@H]1CC[C@H]2C3CC=C4C[C@@H](O)CC[C@]4(C)[C@H]3CC[C@]12C (stereo partly drawn) [3beta-ol-23,24-bisnor-5-en-22-(butanoic acid) amide] | > 100 | 
CC(=O)O[C@H]1CC[C@@]2(C)C(=CCC3[C@@H]4CC[C@H]([C@H](C)C(=O)NC[C@H](NC(=O)OC(C)(C)C)C(=O)O)[C@@]4(C)CC[C@@H]32)C1 (stereo partly drawn) [3beta-acetoxy-23,24-bisnor-5-en-22-(3-(2-Boc-amino)propanoic acid) amide] | > 100 | 
C[C@H](C(=O)NCCC(=O)O)[C@H]1CC[C@H]2C3CC=C4C[C@@H](O)CC[C@]4(C)[C@H]3CC[C@]12C (stereo partly drawn) [3beta-ol-23,24-bisnor-5-en-22-(propanoic acid) amide] | > 100 | 
COC(=O)CNC[C@@H](C)[C@H]1CC[C@H]2C3CC=C4C[C@@H](OC(C)=O)CC[C@]4(C)[C@H]3CC[C@]12C (stereo partly drawn) [3beta-acetoxy-23,24-bisnor-chol-5-en-22-(methyl ethanoate) amine] | > 100 | 
COC(=O)[C@@H](N)CCCCNC(=O)[C@@H](C)[C@H]1CC[C@H]2C3CC=C4C[C@@H](O)CC[C@]4(C)[C@H]3CC[C@]12C (stereo partly drawn) [3beta-ol-23,24-bisnor-5-en-22-(6-(2-amino) hexanoate ester) amide] | > 100 | 
CC(=O)O[C@H]1CC[C@@]2(C)C(=CCC3[C@@H]4CC[C@H]([C@H](C)CNC[C@H](NC(=O)OC(C)(C)C)C(=O)O)[C@@]4(C)CC[C@@H]32)C1 (stereo partly drawn) [3beta-acetoxy-23,24-bisnor-5-en-22-(3-(2-Boc-amino)propanoic acid) amine] | > 100 | 
C[C@H](C(=O)NCCCCCCCC(=O)O)[C@H]1CC[C@H]2C3CC=C4C[C@@H](O)CC[C@]4(C)[C@H]3CC[C@]12C (stereo partly drawn) [3beta-ol-23,24-bisnor-5-en-22-(octanoic acid) amide] | > 100 | 
COC(=O)CCNC[C@@H](C)[C@H]1CC[C@H]2C3CC=C4C[C@@H](OC(C)=O)CC[C@]4(C)[C@H]3CC[C@]12C (stereo partly drawn) [3beta-acetoxy-23,24-bisnor-chol-5-en-22-(methyl propanoate) amine] | > 100 | 
COC(=O)CCCCNC[C@@H](C)[C@H]1CC[C@H]2C3CC=C4C[C@@H](OC(C)=O)CC[C@]4(C)[C@H]3CC[C@]12C (stereo partly drawn) [3beta-acetoxy-23,24-bisnor-chol-5-en-22-(methyl pentanoate) amine] | > 100 | 
C[C@H](C(=O)NCCCCC(=O)O)[C@H]1CC[C@H]2C3CC=C4C[C@@H](O)CC[C@]4(C)[C@H]3CC[C@]12C (stereo partly drawn) [3beta-ol-23,24-bisnor-5-en-22-(pentanoic acid) amide] | > 100 | 
CC(=O)O[C@H]1CC[C@@]2(C)C(=CCC3[C@@H]4CC[C@H]([C@H](C)C(=O)NCCCC[C@H](NC(=O)OCc5ccccc5)C(=O)OCc5ccccc5)[C@@]4(C)CC[C@@H]32)C1 (stereo partly drawn) [3beta-acetoxy-23,24-bisnor-5-en-22-(6-(2-Z-amino)benzyl hexanoate) amide] | > 100 | 
C[C@H](CNCCCCCCCC(=O)O)[C@H]1CC[C@H]2C3CC=C4C[C@@H](O)CC[C@]4(C)[C@H]3CC[C@]12C (stereo partly drawn) [3beta-ol-23,24-bisnor-5-en-22-(octanoic acid) amine] | > 100 | 
CC(=O)O[C@H]1CC[C@@]2(C)C(=CCC3[C@@H]4CC[C@H]([C@H](C)CNCCCC(=O)O)[C@@]4(C)CC[C@@H]32)C1 (stereo partly drawn) [3beta-acetoxy-23,24-bisnor-chol-5-en-22-(butanoic acid) amine] | > 100 | 
